Measured values from publication PMC6345968, “Structural basis for species-selective targeting of Hsp90 in a pathogenic fungus” (Nature Communications, 2019).
“And” between values parts separate entries of the source, which are not always exact repeats. Identical values can stand only once. Like-named read-outs stand apart in the source and are kept apart here.

Experiments:
C. albicans Hsp90 NBD = biological target: T1, C. albicans Hsp90 NBD (Candida albicans, UniProt P46598); assay: biochemical; type: binding; conditions: 0.1 nM Cy3-GdA, C. albicans NBD-Hsp90 (10 nM)
T1 construct: C. albicans Hsp90 (E7-K218); made in house; host or cells: E. coli Rosetta2
T1 sequence (P46598 7-218): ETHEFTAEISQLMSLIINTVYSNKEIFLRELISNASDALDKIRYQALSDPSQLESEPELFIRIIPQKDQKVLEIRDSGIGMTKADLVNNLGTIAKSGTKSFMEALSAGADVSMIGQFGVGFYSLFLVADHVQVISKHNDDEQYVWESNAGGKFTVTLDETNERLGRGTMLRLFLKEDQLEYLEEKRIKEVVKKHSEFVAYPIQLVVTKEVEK

[1] = biological target: T2, Hsp90 in C. albicans (SC5314) lysate (Candida albicans, UniProt P46598); assay: biochemical; type: binding; conditions: for FP signal: raw
T2 construct: endogenous in cells; host or cells: C. albicans SC5314 whole-cell lysate
T2 sequence (P46598 whole entry): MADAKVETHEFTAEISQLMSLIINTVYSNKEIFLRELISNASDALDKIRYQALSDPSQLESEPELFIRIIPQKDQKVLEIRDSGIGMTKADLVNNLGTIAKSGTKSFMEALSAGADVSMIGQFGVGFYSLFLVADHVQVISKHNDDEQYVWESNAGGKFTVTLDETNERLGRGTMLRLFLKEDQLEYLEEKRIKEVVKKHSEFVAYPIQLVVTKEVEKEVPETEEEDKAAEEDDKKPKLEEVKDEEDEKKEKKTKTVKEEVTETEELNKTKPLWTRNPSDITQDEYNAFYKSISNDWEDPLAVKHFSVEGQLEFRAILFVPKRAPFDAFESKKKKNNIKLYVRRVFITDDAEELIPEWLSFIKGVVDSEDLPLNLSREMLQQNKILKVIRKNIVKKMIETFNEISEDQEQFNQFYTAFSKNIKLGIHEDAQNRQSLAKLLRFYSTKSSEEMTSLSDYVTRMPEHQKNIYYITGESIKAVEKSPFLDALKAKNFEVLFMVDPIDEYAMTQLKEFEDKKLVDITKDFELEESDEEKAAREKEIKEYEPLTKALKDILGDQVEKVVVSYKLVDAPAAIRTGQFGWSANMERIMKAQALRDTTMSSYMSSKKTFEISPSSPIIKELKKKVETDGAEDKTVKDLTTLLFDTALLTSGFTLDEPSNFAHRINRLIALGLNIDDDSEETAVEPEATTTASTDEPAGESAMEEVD

Hsp90 in 3T3 lysate = assay: FP competition in whole-cell lysate; type: binding, mouse; conditions: 3T3 lysate
Experimental: After vortexing, cell lysate was frozen at −80 °C for 2 h, followed by thawing on ice. The vortex-freeze-thaw step was repeated. […] Aliquots were thawed immediately prior to use.

Hsp90 in HEPG2 lysate = conditions: for FP signal / FP signal (raw): HepG2 lysate; for FP signal: raw
human Hsp90 NBD = human Hsp90 NBD (Homo sapiens, UniProt P08238); conditions: 0.1 nM Cy3-GdA, Human NBD-Hsp90 (10 nM); for FP signal (raw) / FP signal as fraction of no-compound (0 uM) control: Experiments 1-3
Sequence of human Hsp90 NBD (P08238 1-223): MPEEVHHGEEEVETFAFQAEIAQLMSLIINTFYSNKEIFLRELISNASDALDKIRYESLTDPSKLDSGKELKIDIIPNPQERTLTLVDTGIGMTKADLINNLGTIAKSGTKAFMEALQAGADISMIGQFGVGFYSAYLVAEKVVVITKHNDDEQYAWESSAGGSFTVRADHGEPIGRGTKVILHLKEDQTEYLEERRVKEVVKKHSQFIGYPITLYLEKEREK

human Grp94 NBD = human Grp94 NBD (Homo sapiens, UniProt P14625); conditions: 0.1 nM Cy3-GdA, Experiments 1-3
Sequence of human Grp94 NBD (P14625 63-337): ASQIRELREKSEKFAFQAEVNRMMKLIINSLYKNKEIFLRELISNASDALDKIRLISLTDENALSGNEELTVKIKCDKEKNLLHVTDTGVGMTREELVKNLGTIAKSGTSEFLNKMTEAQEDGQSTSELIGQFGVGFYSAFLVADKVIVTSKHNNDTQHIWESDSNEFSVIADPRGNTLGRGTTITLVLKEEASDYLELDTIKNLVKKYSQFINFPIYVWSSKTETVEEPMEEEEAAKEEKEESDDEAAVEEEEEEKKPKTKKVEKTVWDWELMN

[2] = read-out: FP signal, fraction of control
[3] = Experiments 1-3, one value per experiment

## COC1=C2C[C@@H](C)C[C@H](OC)[C@H](O)[C@@H](C)/C=C(\C)[C@H](OC(N)=O)[C@@H](OC)/C=C\C=C(/C)C(=O)NC(=CC1=O)C2=O [geldanamycin, reference compound]
C. albicans Hsp90 NBD; Cmpd 0.002 uM, Experiments 1-3
  FP signal (raw): 98
C. albicans Hsp90 NBD; Cmpd 0.002 uM, Experiments 1-3, read-out: FP signal as fraction of no-compound (0 uM) control
  remaining activity at 0.002 µM: 98%
C. albicans Hsp90 NBD; Cmpd 0.004 uM, Experiments 1-3
  FP signal (raw): 97
C. albicans Hsp90 NBD; Cmpd 0.004 uM, Experiments 1-3, read-out: FP signal as fraction of no-compound (0 uM) control
  remaining activity at 0.004 µM: 95.5%
C. albicans Hsp90 NBD; Cmpd 0.008 uM, Experiments 1-3
  FP signal (raw): 92
C. albicans Hsp90 NBD; Cmpd 0.008 uM, Experiments 1-3, read-out: FP signal as fraction of no-compound (0 uM) control
  remaining activity at 0.008 µM: 94.4%
C. albicans Hsp90 NBD; Cmpd 0.016 uM, Experiments 1-3, read-out: FP signal as fraction of no-compound (0 uM) control
  remaining activity at 0.016 µM: 87%
C. albicans Hsp90 NBD; Cmpd 0.25 uM, Experiments 1-3, read-out: FP signal as fraction of no-compound (0 uM) control
  remaining activity at 0.25 µM: 18.6%
C. albicans Hsp90 NBD; Cmpd 0.5 uM, Experiments 1-3
  FP signal (raw): 18 and 19 and 10
C. albicans Hsp90 NBD; Cmpd 0.5 uM, Experiments 1-3, read-out: FP signal as fraction of no-compound (0 uM) control
  remaining activity at 0.5 µM: 10.2%
C. albicans Hsp90 NBD; Cmpd […], Experiments 1-3, read-out: FP signal as fraction of no-compound (0 uM) control
  remaining activity at […]: 71.3%
[1]; EC50 relative to GdA, SC5314 lysate
  Rel. to GdA: 1
[1]; SC5314 lysate, 0.457 nM compound
  FP signal: 205
[1]; SC5314 lysate, 0.457 nM, listed as GdA
  FP signal (raw): 205
[1]; SC5314 lysate, 1.372 nM compound
  FP signal: 198
[1]; SC5314 lysate, 1.372 nM, listed as GdA
  FP signal (raw): 198 and 206
[1]; SC5314 lysate, 0.002 uM, read-out: FP signal, fraction of control
  remaining activity at 0.002 µM: 96.8%
[1]; SC5314 lysate, 0.004 uM, read-out: FP signal, fraction of control
  remaining activity at 0.004 µM: 95.7%
[1]; SC5314 lysate, 0.031 uM, read-out: FP signal, fraction of control
  remaining activity at […]: 59.4%
[1]; SC5314 lysate, 37.037 nM compound
  FP signal: 78
[1]; SC5314 lysate, 37.037 nM, listed as GdA
  FP signal (raw): 78 and 81
[1]; SC5314 lysate, 0.063 uM
  FP signal (raw): 48
[1]; SC5314 lysate, 0.063 uM, read-out: FP signal, fraction of control
  remaining activity at 0.063 µM: 25.7%
[1]; SC5314 lysate, 111.111 nM compound
  FP signal: 47
[1]; SC5314 lysate, 111.111 nM, listed as GdA
  FP signal (raw): 47 and 43
[1]; SC5314 lysate, 0.25 uM
  FP signal (raw): 2
[1]; SC5314 lysate, 0.25 uM, read-out: FP signal, fraction of control
  remaining activity at 0.25 µM: 1.07%
[1]; SC5314 lysate, 333.333 nM
  FP signal (raw): 33
[1]; SC5314 lysate, 333.333 nM compound
  FP signal: 33
[1]; SC5314 lysate, 0.5 uM
  FP signal (raw): -7
[1]; SC5314 lysate, 0.5 uM, read-out: FP signal, fraction of control
  remaining activity at 0.5 µM: -3.74%
[1]; SC5314 lysate, 1 uM
  FP signal (raw): -4
[1]; SC5314 lysate, 1000 nM
  FP signal (raw): 30
[1]; SC5314 lysate, 1000 nM compound
  FP signal: 30
[1]; SC5314 lysate, 2 uM
  FP signal (raw): -6
[1]; SC5314 lysate, 2 uM, read-out: FP signal, fraction of control
  remaining activity at 2 µM: -3.21%
[1]; SC5314 lysate, 3000 nM compound
  FP signal: 30
[1]; SC5314 lysate, 3000 nM, listed as GdA
  FP signal (raw): 30 and 28
[1]; [2]
  remaining activity at 0.008 µM: 91.4%
  remaining activity at 0.016 µM: 79.1%
  remaining activity at 1 µM: -2.14%
Hsp90 in 3T3 lysate; 0.002 uM
  FP signal (raw): 254
Hsp90 in 3T3 lysate; 0.004 uM
  FP signal (raw): 250
Hsp90 in 3T3 lysate; 0.008 uM
  FP signal (raw): 250
Hsp90 in 3T3 lysate; 0.016 uM
  FP signal (raw): 252
Hsp90 in 3T3 lysate; 0.063 uM
  FP signal (raw): 213
Hsp90 in 3T3 lysate; 0.25 uM
  FP signal (raw): 76
Hsp90 in 3T3 lysate; 0.5 uM
  FP signal (raw): 34
Hsp90 in 3T3 lysate; 1 uM
  FP signal (raw): 23
Hsp90 in HEPG2 lysate; EC50 relative to GdA, HEPG2 lysate
  Rel. to GdA: 1
Hsp90 in HEPG2 lysate; 37.037 nM compound
  FP signal: 93
Hsp90 in HEPG2 lysate; 37.037 nM, listed as GdA
  FP signal (raw): 93
Hsp90 in HEPG2 lysate; 111.111 nM compound
  FP signal: 59
Hsp90 in HEPG2 lysate; 111.111 nM, listed as GdA
  FP signal (raw): 59 and 55
Hsp90 in HEPG2 lysate; 0.25 uM
  FP signal (raw): 27
Hsp90 in HEPG2 lysate; 333.333 nM compound
  FP signal: 40
Hsp90 in HEPG2 lysate; 333.333 nM, listed as GdA
  FP signal (raw): 40 and 41
Hsp90 in HEPG2 lysate; 0.5 uM
  FP signal (raw): 9
Hsp90 in HEPG2 lysate; 1 uM
  FP signal (raw): 5
Hsp90 in HEPG2 lysate; 1000 nM compound
  FP signal: 35
Hsp90 in HEPG2 lysate; 1000 nM, listed as GdA
  FP signal (raw): 35 and 32
Hsp90 in HEPG2 lysate; 2 uM
  FP signal (raw): -5
Hsp90 in HEPG2 lysate; 3000 nM compound
  FP signal: 30
Hsp90 in HEPG2 lysate; 3000 nM, listed as GdA
  FP signal (raw): 30 and 27

## COc1ccc(CON=C2C=CC=CC3OC3CC(C)OC(=O)c3c(O)cc(O)cc3C2)cc1 (mixture of isomers) [LEB075]
C. albicans Hsp90 NBD; [3]
  EC50: 82.3 nM and 83.8 nM
C. albicans Hsp90 NBD; Cmpd 0.002 uM, Experiments 1-3
  FP signal (raw): 109 and 127
  FP signal as fraction of no-compound (0 uM) control: 0.6412 and 0.7471
C. albicans Hsp90 NBD; Cmpd 0.004 uM, Experiments 1-3
  FP signal (raw): 109
  FP signal as fraction of no-compound (0 uM) control: 0.6412 and 0.6941
C. albicans Hsp90 NBD; Cmpd 0.008 uM, Experiments 1-3
  FP signal (raw): 101 and 104
  FP signal as fraction of no-compound (0 uM) control: 0.5941 and 0.6118
C. albicans Hsp90 NBD; Cmpd 0.016 uM, Experiments 1-3
  FP signal (raw): 93 and 101
  FP signal as fraction of no-compound (0 uM) control: 0.5471 and 0.5941
C. albicans Hsp90 NBD; Cmpd 0.063 uM, Experiments 1-3
  FP signal (raw): 72 and 79
  FP signal as fraction of no-compound (0 uM) control: 0.4235 and 0.4647
C. albicans Hsp90 NBD; Cmpd 0.25 uM, Experiments 1-3
  FP signal (raw): 38 and 42
  FP signal as fraction of no-compound (0 uM) control: 0.2235 and 0.2471
C. albicans Hsp90 NBD; Cmpd 0.5 uM, Experiments 1-3
  FP signal (raw): 24 and 26
  FP signal as fraction of no-compound (0 uM) control: 0.1412 and 0.1529
C. albicans Hsp90 NBD; Cmpd 1 uM, Experiments 1-3
  FP signal (raw): 15 and 17
  FP signal as fraction of no-compound (0 uM) control: 0.1 and 0.08824
C. albicans Hsp90 NBD; Cmpd 2 uM, Experiments 1-3
  FP signal (raw): 20
  FP signal as fraction of no-compound (0 uM) control: 0.1176
Human Hsp90 NBD; [3]
  EC50: 1650 nM and 1630 nM
Human Hsp90 NBD; Cmpd 0.002 uM
  FP signal (raw): 147 and 148
  FP signal as fraction of no-compound (0 uM) control: 0.98 and 0.9737
Human Hsp90 NBD; Cmpd 0.004 uM
  FP signal (raw): 148 and 151
  FP signal as fraction of no-compound (0 uM) control: 0.9867 and 0.9934
Human Hsp90 NBD; Cmpd 0.008 uM
  FP signal (raw): 149
  FP signal as fraction of no-compound (0 uM) control: 0.9933 and 0.9803
Human Hsp90 NBD; Cmpd 0.016 uM
  FP signal (raw): 150 and 149
  FP signal as fraction of no-compound (0 uM) control: 1 and 0.9803
Human Hsp90 NBD; Cmpd 0.063 uM
  FP signal (raw): 147 and 150
  FP signal as fraction of no-compound (0 uM) control: 0.98 and 0.9868
Human Hsp90 NBD; Cmpd 0.25 uM
  FP signal (raw): 141 and 143
  FP signal as fraction of no-compound (0 uM) control: 0.94 and 0.9408
Human Hsp90 NBD; Cmpd 0.5 uM
  FP signal (raw): 130
  FP signal as fraction of no-compound (0 uM) control: 0.8667 and 0.8553
Human Hsp90 NBD; Cmpd 1 uM
  FP signal (raw): 112 and 106
  FP signal as fraction of no-compound (0 uM) control: 0.7067 and 0.7368
Human Hsp90 NBD; Cmpd 2 uM
  FP signal (raw): 58 and 61
  FP signal as fraction of no-compound (0 uM) control: 0.4067 and 0.3816
Human Grp94 NBD; Cmpd 0.002 uM
  FP signal (raw): 157
Human Grp94 NBD; Cmpd 0.004 uM
  FP signal (raw): 159
Human Grp94 NBD; Cmpd 0.008 uM
  FP signal (raw): 150
Human Grp94 NBD; Cmpd 0.016 uM
  FP signal (raw): 147
Human Grp94 NBD; Cmpd 0.063 uM
  FP signal (raw): 136
Human Grp94 NBD; Cmpd 0.25 uM
  FP signal (raw): 109
